The record followed here is patent US20250214983A1, “1,3,4-OXADIAZOLE TRIAZOLE COMPOUNDS AS HISTONE DEACETYLASE 6 INHIBITOR, AND PHARMACEUTICAL COMPOSITION COMPRISING THE SAME” (Chong Kun Dang Pharmaceutical Corp., priority 2022, published 2025).

A value given as a limit tells only on which side of the number the result lay.

The target in one assay is T1, human recombinant HDAC1 (Homo sapiens, UniProt Q13547).
T1 construct: purchased Enzo Life Science, Inc. BML-SE456
As to the kind of experiment: HDAC1 enzyme activity inhibition (HDAC Fluorimetric Drug Discovery Kit). The assay is classed as biochemical. Particulars: human recombinant HDAC1, Fluor de Lys substrate 10 μM, 30° C. 60 minutes. On the procedure: (§1) An experiment was conducted to identify the selectivity of the 1,3,4-oxadiazole triazole compound of the present invention to HDAC6 through an experiment on HDAC1 and HDAC6 enzyme activity inhibition.
(§2) The HDAC enzyme activity was measured with HDAC Fluorimetric Drug Discovery Kit (BML-AK511, 516) of Enzo Life Science, Inc. For the test on the HDAC1 enzyme activity, human recombinant HDAC1 (BML-SE456) was used as an enzyme source and Fluor de Lys®-“SIRT1 (BNL-KI177)” was used as a substrate. A 5-fold dilution of the compound was divided into a 96-well plate, after which 0.3 μg of the enzyme and 10 μM of the substrate were inserted into each well and subjected to reaction at 30° C. for 60 minutes, such that Fluor de Lys® Developer II (BML-KI176) was inserted thereinto and subjected to reaction for 30 minutes and finished. After that, a fluorescence value (Ex 360, Em 460) was measured with a multi-plate reader (Flexstation 3, Molecular Device). An experiment on HDAC6 enzyme was conducted in accordance with the same protocol as in the HDAC1 enzyme activity test method by using human recombinant HDAC6 (382180) of Calbiochem Inc. For final result values, each IC50 value was calculated with GraphPad Prism 4.0 program.

For a further assay, the target named is T2, human recombinant HDAC6 (Homo sapiens, UniProt Q9UBN7).
T2 construct: purchased Calbiochem Inc. 382180
T2 sequence (Q9UBN7 1-1215): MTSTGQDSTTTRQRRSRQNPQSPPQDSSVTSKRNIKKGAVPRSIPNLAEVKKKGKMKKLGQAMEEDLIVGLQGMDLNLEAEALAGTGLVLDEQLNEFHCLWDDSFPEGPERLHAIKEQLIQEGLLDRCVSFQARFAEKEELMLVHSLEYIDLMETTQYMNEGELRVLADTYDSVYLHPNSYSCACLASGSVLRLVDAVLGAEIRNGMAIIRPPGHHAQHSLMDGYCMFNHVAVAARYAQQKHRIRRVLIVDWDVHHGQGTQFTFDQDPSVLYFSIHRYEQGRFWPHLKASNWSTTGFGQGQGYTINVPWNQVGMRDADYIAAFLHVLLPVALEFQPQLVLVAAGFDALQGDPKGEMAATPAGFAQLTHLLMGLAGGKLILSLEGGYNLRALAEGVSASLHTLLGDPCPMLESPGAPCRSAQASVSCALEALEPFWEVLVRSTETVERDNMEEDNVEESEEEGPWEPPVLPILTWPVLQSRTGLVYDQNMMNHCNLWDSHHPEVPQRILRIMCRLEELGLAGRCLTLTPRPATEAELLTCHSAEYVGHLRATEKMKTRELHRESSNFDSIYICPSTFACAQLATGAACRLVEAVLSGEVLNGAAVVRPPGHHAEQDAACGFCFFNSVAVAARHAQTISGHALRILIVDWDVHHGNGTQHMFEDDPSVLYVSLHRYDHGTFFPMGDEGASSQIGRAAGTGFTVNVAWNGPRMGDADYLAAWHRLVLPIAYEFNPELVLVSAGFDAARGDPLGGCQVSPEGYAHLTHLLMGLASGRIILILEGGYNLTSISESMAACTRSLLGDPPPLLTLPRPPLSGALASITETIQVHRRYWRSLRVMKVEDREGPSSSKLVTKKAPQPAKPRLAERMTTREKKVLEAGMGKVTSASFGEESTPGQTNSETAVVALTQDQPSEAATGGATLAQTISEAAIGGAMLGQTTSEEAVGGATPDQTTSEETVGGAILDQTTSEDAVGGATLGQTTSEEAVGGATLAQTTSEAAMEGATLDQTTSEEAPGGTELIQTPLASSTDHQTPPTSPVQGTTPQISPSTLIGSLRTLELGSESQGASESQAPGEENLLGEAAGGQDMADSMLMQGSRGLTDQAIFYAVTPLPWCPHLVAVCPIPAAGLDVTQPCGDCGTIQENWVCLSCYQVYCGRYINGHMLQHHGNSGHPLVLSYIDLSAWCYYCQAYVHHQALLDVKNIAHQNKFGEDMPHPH
As to the kind of experiment: HDAC6 enzyme activity inhibition (HDAC Fluorimetric Drug Discovery Kit). It is filed as biochemical. Particulars: HDAC1 versus HDAC6. The method, then: as §1, §2

T1 sequence (Q13547 whole entry): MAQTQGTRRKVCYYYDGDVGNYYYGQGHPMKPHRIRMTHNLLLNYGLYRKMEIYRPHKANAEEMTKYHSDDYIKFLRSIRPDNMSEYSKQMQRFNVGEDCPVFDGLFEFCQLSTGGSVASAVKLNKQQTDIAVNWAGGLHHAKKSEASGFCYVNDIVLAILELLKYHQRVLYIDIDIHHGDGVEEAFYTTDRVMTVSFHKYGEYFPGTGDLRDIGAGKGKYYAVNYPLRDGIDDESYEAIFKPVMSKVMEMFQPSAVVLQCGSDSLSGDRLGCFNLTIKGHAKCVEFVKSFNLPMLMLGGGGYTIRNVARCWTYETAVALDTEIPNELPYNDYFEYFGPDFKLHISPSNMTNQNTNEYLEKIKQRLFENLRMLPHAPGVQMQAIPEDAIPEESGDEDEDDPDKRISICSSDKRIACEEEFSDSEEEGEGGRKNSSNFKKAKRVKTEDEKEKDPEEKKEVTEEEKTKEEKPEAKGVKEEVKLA

With `CC1CCN(Cc2cc(-c3cn(Cc4ccc(-c5nnc(C(F)F)o5)cn4)nn3)ccc2F)CC1` [Compound 25, 2-(difluoromethyl)-5-(6-((4-(4-fluoro-3-((4-methylpiperidin-1-yl)methyl)phenyl)-1H-1,2,3-triazol-1-yl)methyl)pyridin-3-yl)-1,3,4-oxadiazole], the concentration for half-maximal inhibition (IC50) – broadly, the midpoint of a concentration-inhibition curve – at human recombinant HDAC1 is more than 50 µM. The “HDAC6 selectivity (fold)” value on human recombinant HDAC6 came to 2890 fold.

In the case of `Fc1c(CN2CCCCC2)cccc1-c1cn(Cc2ccc(-c3nnc(C(F)F)o3)cn2)nn1` [Compound 28, 2-(difluoromethyl)-5-(6-((4-(2-fluoro-3-(piperidin-1-ylmethyl)phenyl)-1H-1,2,3-triazol-1-yl)methyl)pyridin-3-yl)-1,3,4-oxadiazole], the IC50 at human recombinant HDAC1 is more than 50 µM. In addition, the “HDAC6 selectivity (fold)” value on human recombinant HDAC6 turned out to be 1440 fold.

On to `CN(C)Cc1cc(Cl)cc(-c2cn(Cc3ccc(-c4nnc(C(F)F)o4)cn3)nn2)c1` [Compound 31, 1-(3-chloro-5-(1-((5-(5-(difluoromethyl)-1,3,4-oxadiazol-2-yl)pyridin-2-yl)methyl)-1H-1,2,3-triazol-4-yl)phenyl)-N,N-dimethylmethanamine], for which, on human recombinant HDAC1, the half-inhibitory concentration (IC50) was more than 50 µM. Moreover, the “HDAC6 selectivity (fold)” value at human recombinant HDAC6 worked out at 1424 fold.

`FC(F)c1nnc(-c2ccc(Cn3cc(-c4cc(Cl)cc(CN5CCCC5)c4)nn3)nc2)o1` [Compound 32, 2-(6-((4-(3-chloro-5-(pyrrolidin-1-ylmethyl)phenyl)-1H-1,2,3-triazol-1-yl)methyl)pyridin-3-yl)-5-(difluoromethyl)-1,3,4-oxadiazole]: on human recombinant HDAC1, the half-inhibitory concentration (IC50) was more than 50 µM. In addition, the “HDAC6 selectivity (fold)” value at human recombinant HDAC6 came out at 1945 fold.

In the case of `CN(C)Cc1cccc(-c2cn(Cc3ccc(-c4nnc(C(F)F)o4)cn3)nn2)c1Cl` [Compound 34, 1-(2-chloro-3-(1-((5-(5-(difluoromethyl)-1,3,4-oxadiazol-2-yl)pyridin-2-yl)methyl)-1H-1,2,3-triazol-4-yl)phenyl)-N,N-dimethylmethanamine], the IC50 on human recombinant HDAC1 is more than 50 µM. In addition, the “HDAC6 selectivity (fold)” value at human recombinant HDAC6 was found to be 1633 fold.

Regarding `FC(F)c1nnc(-c2ccc(Cn3cc(-c4cccc(CN5CCC5)c4Cl)nn3)nc2)o1` [Compound 35, 2-(6-((4-(3-(azetidin-1-ylmethyl)-2-chlorophenyl)-1H-1,2,3-triazol-1-yl)methyl)pyridin-3-yl)-5-(difluoromethyl)-1,3,4-oxadiazole], the IC50 on human recombinant HDAC1 was more than 50 µM. Also, the “HDAC6 selectivity (fold)” value on human recombinant HDAC6 worked out at 1146 fold.

Take `FC(F)c1nnc(-c2ccc(Cn3cc(-c4cccc(CN5CCCC5)c4Cl)nn3)nc2)o1` [Compound 36, 2-(6-((4-(2-chloro-3-(pyrrolidin-1-ylmethyl)phenyl)-1H-1,2,3-triazol-1-yl)methyl)pyridin-3-yl)-5-(difluoromethyl)-1,3,4-oxadiazole]: the IC50 at human recombinant HDAC1 was more than 50 µM. Moreover, the “HDAC6 selectivity (fold)” value at human recombinant HDAC6 was 1792 fold.

As for `CC1CCN(Cc2cccc(-c3cn(Cc4ccc(-c5nnc(C(F)F)o5)cn4)nn3)c2Cl)CC1` [Compound 37, 2-(6-((4-(2-chloro-3-((4-methylpiperidin-1-yl)methyl)phenyl)-1H-1,2,3-triazol-1-yl)methyl)pyridin-3-yl)-5-(difluoromethyl)-1,3,4-oxadiazole], the IC50 at human recombinant HDAC1 was more than 50 µM. Moreover, the “HDAC6 selectivity (fold)” value on human recombinant HDAC6 was found to be 1160 fold.

Regarding `Fc1cc(CN2CCC2)cc(-c2cn(Cc3ccc(-c4nnc(C(F)F)o4)cn3)nn2)c1` [Compound 38, 2-(6-((4-(3-(azetidin-1-ylmethyl)-5-fluorophenyl)-1H-1,2,3-triazol-1-yl)methyl)pyridin-3-yl)-5-(difluoromethyl)-1,3,4-oxadiazole], at human recombinant HDAC1, the half-inhibitory concentration (IC50) was more than 50 µM. In addition, on human recombinant HDAC6, the “HDAC6 selectivity (fold)” value amounted to 2777 fold.

With `Fc1cc(CN2CCCC2)cc(-c2cn(Cc3ccc(-c4nnc(C(F)F)o4)cn3)nn2)c1` [Compound 39, 2-(difluoromethyl)-5-(6-((4-(3-fluoro-5-(pyrrolidin-1-ylmethyl)phenyl)-1H-1,2,3-triazol-1-yl)methyl)pyridin-3-yl)-1,3,4-oxadiazole], the IC50 at human recombinant HDAC1 was more than 50 µM. Further, the “HDAC6 selectivity (fold)” value on human recombinant HDAC6 came to 1773 fold.

Consider `CN(C)Cc1ccc(-c2cn(Cc3ccc(-c4nnc(C(F)F)o4)cn3)nn2)cc1Cl` [Compound 41, 1-(2-chloro-4-(1-((5-(5-(difluoromethyl)-1,3,4-oxadiazol-2-yl)pyridin-2-yl)methyl)-1H-1,2,3-triazol-4-yl)phenyl)-N,N-dimethylmethanamine], for which, at human recombinant HDAC1, the 50% inhibitory concentration (IC50) is more than 50 µM. For the same compound, the “HDAC6 selectivity (fold)” value at human recombinant HDAC6 is reported as 2083 fold.

Turning to `FC(F)c1nnc(-c2ccc(Cn3cc(-c4ccc(CN5CCC5)c(Cl)c4)nn3)nc2)o1` [Compound 42, 2-(6-((4-(4-(azetidin-1-ylmethyl)-3-chlorophenyl)-1H-1,2,3-triazol-1-yl)methyl)pyridin-3-yl)-5-(difluoromethyl)-1,3,4-oxadiazole], at human recombinant HDAC1, the IC50 is more than 50 µM. Moreover, the “HDAC6 selectivity (fold)” value at human recombinant HDAC6 was 2183 fold.
